Experimental data taken from ChEMBL document CHEMBL1137233, “Synthesis and cardiac effects of 3,4-dihydropyrimidin-2(1H)-one-5 carboxylates” (Bioorg Med Chem Lett, 2006).
The source made the active and inactive calls. The rule behind the calls is not given here.

Legend:
Assay type in all cases: functional
[1] = test system: Riparian frogs; assay: Negative inotropic action in isolated perfused frog heart; details: Hoplobatrachus tigerinus
[2] = test system: Riparian frogs; assay: Decrease in cardiac output in isolated perfused frog heart; details: Hoplobatrachus tigerinus
[3] = biological target: Adrenergic receptor beta (Homo sapiens) (UniProt P08588+P07550+P13945); assay: Antagonist activity at adrenergic beta receptor assessed as inhibition of adrenalin effect
[4] = test system: Riparian frogs; assay: Negative chronotropic action measured as decrease in rate of contraction in isolated perfused frog heart; details: Hoplobatrachus tigerinus
[5] = test system: Riparian frogs; assay: Increase in cardiac output in isolated perfused frog heart; details: Hoplobatrachus tigerinus
[6] = test system: Riparian frogs; assay: Positive inotropic action measured as increase in force of contraction in isolated perfused frog heart; details: Hoplobatrachus tigerinus
[7] = test system: Riparian frogs; assay: Increase in cardiac output in isolated perfused frog heart at 1 mg/ml; details: Hoplobatrachus tigerinus
[8] = test system: Riparian frogs; assay: Positive inotropic action measured as increase in force of contraction in isolated perfused frog heart at 500 ug/ml; details: Hoplobatrachus tigerinus
[9] = test system: Riparian frogs; assay: Increase in cardiac output in isolated perfused frog heart at 500 ug/ml; details: Hoplobatrachus tigerinus
[10] = test system: Riparian frogs; assay: Positive inotropic action measured as increase in force of contraction in isolated perfused frog heart at 1 mg/ml; details: Hoplobatrachus tigerinus
[11] = test system: Riparian frogs; assay: Effect on cardiac output in isolated perfused frog heart; details: Ranidae
[12] = test system: Riparian frogs; assay: Effect on force of contraction in isolated perfused frog heart; details: Hoplobatrachus tigerinus
[13] = test system: Riparian frogs; assay: Effect on rate of contraction in isolated perfused frog heart; details: Hoplobatrachus tigerinus

SMILES	Activity [4]	Activity [5]	Activity [6]	also measured
COC(=O)C1=C(C)NC(=O)NC1c1ccccc1Cl (stereo not given)	Active			Activity [1]: Active; Activity [2]: Active; Activity [3]: Active
CCOC(=O)C1=C(C)NC(=O)NC1c1ccc(O)cc1 (stereo not given)	Dose-dependent effect	Active	Dose-dependent effect	
CCOC(=O)C1=C(C)NC(=O)NC1c1ccc(OC)cc1 (stereo not given)	Active	Active	Active	
CCOC(=O)C1=C(C)NC(=O)NC1C(C)C (stereo not given)	Dose-dependent effect	Active	Dose-dependent effect	
CCOC(=O)C1=C(C)NC(=O)NC1c1ccc(-c2ccccc2)cc1 (stereo not given)				Activity [7]: Active; Activity [8]: Active; Activity [9]: Active; Activity [10]: Active
CCOC(=O)C1=C(C)NC(=O)NC1c1ccccc1[N+](=O)[O-] (stereo not given)				Activity [11]: inactive; Activity [12]: inactive; Activity [13]: inactive
CCOC(=O)C1=C(C)NC(=O)NC1c1cccc(O)c1 (stereo not given)	Dose-dependent effect	Active	Dose-dependent effect	
CCOC(=O)C1=C(C)NC(=O)NC1c1ccccc1Cl (stereo not given)	Active			Activity [1]: Active; Activity [2]: Active; Activity [3]: Active
CC1=C(C(=O)Oc2ccccc2)C(c2cccc(O)c2)NC(=O)N1 (stereo not given)	Dose-dependent effect	Active	Dose-dependent effect	
